Measurements taken from PubChem BioAssay (NCI).
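Values below derive from 48-hour exposures of cells grown in 96-well plates, with endpoints linearly interpolated between the two concentrations bracketing the appropriate inhibition level. GI50 = concentration required for 50% inhibition of growth. TGI is the concentration that stops growth completely.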

Key:
Assay in all cases: NCI-60 cell line screen, 48 h
SK-OV-3 ovarian = tested on: SK-OV-3 ovarian
UACC-62 melanoma = tested on: UACC-62 melanoma
NCI-H23 lung = tested on: NCI-H23 lung
TK-10 renal = tested on: TK-10 renal
NCI-H460 lung = tested on: NCI-H460 lung
HOP-62 NSCLC = tested on: HOP-62 NSCLC
HCT-116 colon = tested on: HCT-116 colon
ACHN renal = tested on: ACHN renal
HCT-15 colon = tested on: HCT-15 colon
M14 melanoma = tested on: M14 melanoma
OVCAR-8 ovarian = tested on: OVCAR-8 ovarian
OVCAR-4 ovarian = tested on: OVCAR-4 ovarian
SF-268 CNS = tested on: SF-268 CNS
T-47D breast = tested on: T-47D breast
A549 NSCLC = tested on: A549 NSCLC
SK-MEL-5 melanoma = tested on: SK-MEL-5 melanoma
NCI/ADR-RES ovarian = tested on: NCI/ADR-RES ovarian
RPMI-8226 leukemia = tested on: RPMI-8226 leukemia
U251 CNS = tested on: U251 CNS
HCC-2998 colon = tested on: HCC-2998 colon
SNB-19 CNS = tested on: SNB-19 CNS
KM12 colon = tested on: KM12 colon
MCF7 breast = tested on: MCF7 breast
HS 578T breast = tested on: HS 578T breast
NCI-H522 lung = tested on: NCI-H522 lung
SF-539 CNS = tested on: SF-539 CNS
A498 renal = tested on: A498 renal
CCRF-CEM leukemia = tested on: CCRF-CEM leukemia
SW-620 colon = tested on: SW-620 colon
BT-549 breast = tested on: BT-549 breast
UACC-257 melanoma = tested on: UACC-257 melanoma
786-0 renal = tested on: 786-0 renal
DU-145 prostate = tested on: DU-145 prostate
SN12C renal = tested on: SN12C renal
HOP-92 NSCLC = tested on: HOP-92 NSCLC
MOLT-4 leukemia = tested on: MOLT-4 leukemia
SF-295 CNS = tested on: SF-295 CNS
HL-60(TB) leukemia = tested on: HL-60(TB) leukemia
SR leukemia = tested on: SR leukemia
OVCAR-3 ovarian = tested on: OVCAR-3 ovarian
IGROV1 ovarian = tested on: IGROV1 ovarian
NCI-H226 lung = tested on: NCI-H226 lung
COLO 205 colon = tested on: COLO 205 colon
HT29 colon = tested on: HT29 colon
UO-31 renal = tested on: UO-31 renal
EKVX NSCLC = tested on: EKVX NSCLC
MDA-MB-435 = tested on: MDA-MB-435
OVCAR-5 ovarian = tested on: OVCAR-5 ovarian
MALME-3M melanoma = tested on: MALME-3M melanoma
SNB-75 CNS = tested on: SNB-75 CNS
PC-3 prostate = tested on: PC-3 prostate
SK-MEL-2 melanoma = tested on: SK-MEL-2 melanoma
MDA-MB-231 breast = tested on: MDA-MB-231 breast
CAKI-1 renal = tested on: CAKI-1 renal
RXF 393 renal = tested on: RXF 393 renal
LOX IMVI melanoma = tested on: LOX IMVI melanoma

Cc1cc(C)c(S(=O)(=O)N2CCN(c3cc4c(cc3F)c(=O)c(C(=O)O)cn4C3CC3)CC2)c(C)c1
GI50 (SK-OV-3 ovarian): 3020 nM | TGI (SK-OV-3 ovarian): > 100000 nM | GI50 (UACC-62 melanoma): 2430 nM | TGI (UACC-62 melanoma): > 100000 nM | GI50 (NCI-H23 lung): 3410 nM | TGI (NCI-H23 lung): > 100000 nM | GI50 (TK-10 renal): 4570 nM | TGI (TK-10 renal): > 100000 nM | GI50 (NCI-H460 lung): 3040 nM | TGI (NCI-H460 lung): > 100000 nM | GI50 (HOP-62 NSCLC): 3650 nM | TGI (HOP-62 NSCLC): > 100000 nM | GI50 (HCT-116 colon): 2980 nM | TGI (HCT-116 colon): > 100000 nM | GI50 (ACHN renal): 2460 nM | TGI (ACHN renal): > 100000 nM | GI50 (HCT-15 colon): 2550 nM | TGI (HCT-15 colon): > 100000 nM | GI50 (M14 melanoma): 4690 nM | TGI (M14 melanoma): > 100000 nM | GI50 (OVCAR-8 ovarian): 2870 nM | TGI (OVCAR-8 ovarian): > 100000 nM | GI50 (OVCAR-4 ovarian): 2370 nM | TGI (OVCAR-4 ovarian): > 100000 nM | GI50 (SF-268 CNS): 3960 nM | TGI (SF-268 CNS): > 100000 nM | GI50 (T-47D breast): 4810 nM | TGI (T-47D breast): > 100000 nM | GI50 (A549 NSCLC): 2230 nM | TGI (A549 NSCLC): > 100000 nM | GI50 (SK-MEL-5 melanoma): 3030 nM | TGI (SK-MEL-5 melanoma): > 100000 nM | GI50 (NCI/ADR-RES ovarian): 3290 nM | TGI (NCI/ADR-RES ovarian): > 100000 nM | GI50 (RPMI-8226 leukemia): 2340 nM | TGI (RPMI-8226 leukemia): 6830 nM | GI50 (U251 CNS): 2890 nM | TGI (U251 CNS): > 100000 nM | GI50 (HCC-2998 colon): 5370 nM | TGI (HCC-2998 colon): > 100000 nM | GI50 (SNB-19 CNS): 2560 nM | TGI (SNB-19 CNS): > 100000 nM | GI50 (KM12 colon): 3380 nM | TGI (KM12 colon): > 100000 nM | GI50 (MCF7 breast): 2590 nM | TGI (MCF7 breast): > 100000 nM | GI50 (HS 578T breast): 2400 nM | TGI (HS 578T breast): 7580 nM | GI50 (NCI-H522 lung): 2800 nM | TGI (NCI-H522 lung): > 100000 nM | GI50 (SF-539 CNS): 3140 nM | TGI (SF-539 CNS): > 100000 nM | GI50 (A498 renal): 2370 nM | TGI (A498 renal): > 100000 nM | GI50 (CCRF-CEM leukemia): 2800 nM | TGI (CCRF-CEM leukemia): > 100000 nM | GI50 (SW-620 colon): 3400 nM | TGI (SW-620 colon): > 100000 nM | GI50 (BT-549 breast): 3340 nM | TGI (BT-549 breast): > 100000 nM | GI50 (UACC-257 melanoma): > 100000 nM | TGI (UACC-257 melanoma): > 100000 nM | GI50 (786-0 renal): 4080 nM | TGI (786-0 renal): > 100000 nM | GI50 (DU-145 prostate): 3400 nM | TGI (DU-145 prostate): > 100000 nM | GI50 (SN12C renal): 2610 nM | TGI (SN12C renal): > 100000 nM

COc1ccc(NC(=O)c2sc3nc(C)c(C(=O)/C=C/c4ccccc4)cc3c2N)cc1
GI50 (SK-OV-3 ovarian): 3330 nM | TGI (SK-OV-3 ovarian): 12700 nM | GI50 (UACC-62 melanoma): 934 nM | TGI (UACC-62 melanoma): 1960 nM | GI50 (NCI-H23 lung): 1570 nM | TGI (NCI-H23 lung): 6090 nM | GI50 (TK-10 renal): 1350 nM | TGI (TK-10 renal): 3590 nM | GI50 (HOP-92 NSCLC): 1390 nM | TGI (HOP-92 NSCLC): 6650 nM | GI50 (MOLT-4 leukemia): 1430 nM | TGI (MOLT-4 leukemia): > 50000 nM | GI50 (NCI-H460 lung): 931 nM | TGI (NCI-H460 lung): 2080 nM | GI50 (SF-295 CNS): 1870 nM | TGI (SF-295 CNS): 9200 nM | GI50 (HOP-62 NSCLC): 1260 nM | TGI (HOP-62 NSCLC): 3160 nM | GI50 (HL-60(TB) leukemia): 971 nM | TGI (HL-60(TB) leukemia): 2500 nM | GI50 (HCT-116 colon): 849 nM | TGI (HCT-116 colon): 1780 nM | GI50 (SR leukemia): 1070 nM | TGI (SR leukemia): 4000 nM | GI50 (OVCAR-3 ovarian): 1090 nM | TGI (OVCAR-3 ovarian): 2730 nM | GI50 (ACHN renal): 888 nM | TGI (ACHN renal): 1740 nM | GI50 (HCT-15 colon): 892 nM | TGI (HCT-15 colon): 2070 nM | GI50 (M14 melanoma): 1750 nM | TGI (M14 melanoma): 10300 nM | GI50 (OVCAR-8 ovarian): 1420 nM | TGI (OVCAR-8 ovarian): 5220 nM | GI50 (IGROV1 ovarian): 859 nM | TGI (IGROV1 ovarian): 2090 nM | GI50 (OVCAR-4 ovarian): 4430 nM | TGI (OVCAR-4 ovarian): > 50000 nM | GI50 (NCI-H226 lung): 1110 nM | TGI (NCI-H226 lung): 2870 nM | GI50 (SF-268 CNS): 1570 nM | TGI (SF-268 CNS): 5930 nM | GI50 (T-47D breast): 1250 nM | TGI (T-47D breast): 4370 nM | GI50 (COLO 205 colon): 1430 nM | TGI (COLO 205 colon): 5180 nM | GI50 (A549 NSCLC): 749 nM | TGI (A549 NSCLC): 2130 nM | GI50 (SK-MEL-5 melanoma): 2030 nM | TGI (SK-MEL-5 melanoma): 7220 nM | GI50 (HT29 colon): 883 nM | TGI (HT29 colon): 1940 nM | GI50 (UO-31 renal): 748 nM | TGI (UO-31 renal): 1440 nM | GI50 (EKVX NSCLC): 1620 nM | TGI (EKVX NSCLC): 8850 nM | GI50 (RPMI-8226 leukemia): 860 nM | TGI (RPMI-8226 leukemia): 2740 nM | GI50 (U251 CNS): 889 nM | TGI (U251 CNS): 1680 nM | GI50 (MDA-MB-435): 1040 nM | TGI (MDA-MB-435): 2960 nM | GI50 (OVCAR-5 ovarian): 1110 nM | TGI (OVCAR-5 ovarian): 3260 nM | GI50 (HCC-2998 colon): 901 nM | TGI (HCC-2998 colon): 1760 nM | GI50 (SNB-19 CNS): 1300 nM | TGI (SNB-19 CNS): 4020 nM | GI50 (KM12 colon): 897 nM | TGI (KM12 colon): 1870 nM | GI50 (MCF7 breast): 815 nM | TGI (MCF7 breast): 6000 nM | GI50 (HS 578T breast): 2050 nM | TGI (HS 578T breast): > 50000 nM | GI50 (NCI-H522 lung): 943 nM | TGI (NCI-H522 lung): 2420 nM | GI50 (SF-539 CNS): 951 nM | TGI (SF-539 CNS): 1840 nM | GI50 (MALME-3M melanoma): 1930 nM | TGI (MALME-3M melanoma): 21600 nM | GI50 (A498 renal): 890 nM | TGI (A498 renal): 3220 nM | GI50 (SNB-75 CNS): 1220 nM | TGI (SNB-75 CNS): 3530 nM | GI50 (PC-3 prostate): 1250 nM | TGI (PC-3 prostate): 3890 nM | GI50 (CCRF-CEM leukemia): 1260 nM | TGI (CCRF-CEM leukemia): 9940 nM | GI50 (SK-MEL-2 melanoma): 3780 nM | TGI (SK-MEL-2 melanoma): 17500 nM | GI50 (SW-620 colon): 966 nM | TGI (SW-620 colon): 2240 nM | GI50 (MDA-MB-231 breast): 1760 nM | TGI (MDA-MB-231 breast): 12600 nM | GI50 (CAKI-1 renal): 953 nM | TGI (CAKI-1 renal): 1820 nM | GI50 (RXF 393 renal): 820 nM | TGI (RXF 393 renal): 1620 nM | GI50 (BT-549 breast): 938 nM | TGI (BT-549 breast): 2230 nM | GI50 (LOX IMVI melanoma): 863 nM | TGI (LOX IMVI melanoma): 1610 nM | GI50 (UACC-257 melanoma): 1190 nM | TGI (UACC-257 melanoma): 3560 nM | GI50 (786-0 renal): 821 nM | TGI (786-0 renal): 1670 nM | GI50 (DU-145 prostate): 1300 nM | TGI (DU-145 prostate): 3720 nM | GI50 (SN12C renal): 1100 nM | TGI (SN12C renal): 2850 nM
